This passage reports inhibition results from patent publication US8946438B2, “Benzamides, production thereof, and use thereof as medicaments” (Boehringer Ingelheim International GmbH, priority 2008, dated 2015).

This assay deals with p38 MAP-kinase (Homo sapiens, UniProt Q16539). In words: Enzymatic assay: inhibition of p38 MAP-kinase (phosphorylation of GST-tagged ATF2, chemoluminescence bead readout). Format: biochemical. To be noted: inhibitor 1 μM; activated p38 MAP-kinase 1 nM; 4 h preincubation; ATP 100 μM; ATF2 10 nM; read-out: % inhibitory effect at 1 μM. In outline: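 Activated human p38 MAP-kinase (1 nM) preincubated 4 h at ambient temperature with compound at 1 μM in HEPES pH 7, MgCl2, DTT, Tween20. Then reacted 1 h with GST-ATF2 (10 nM) and ATP (100 μM). Phospho-ATF2 read by bead chemoluminescence at 520-620 nm, given as % inhibition at 1 μM versus kinase-free background.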
Sequence of p38 MAP-kinase (Q16539 whole entry): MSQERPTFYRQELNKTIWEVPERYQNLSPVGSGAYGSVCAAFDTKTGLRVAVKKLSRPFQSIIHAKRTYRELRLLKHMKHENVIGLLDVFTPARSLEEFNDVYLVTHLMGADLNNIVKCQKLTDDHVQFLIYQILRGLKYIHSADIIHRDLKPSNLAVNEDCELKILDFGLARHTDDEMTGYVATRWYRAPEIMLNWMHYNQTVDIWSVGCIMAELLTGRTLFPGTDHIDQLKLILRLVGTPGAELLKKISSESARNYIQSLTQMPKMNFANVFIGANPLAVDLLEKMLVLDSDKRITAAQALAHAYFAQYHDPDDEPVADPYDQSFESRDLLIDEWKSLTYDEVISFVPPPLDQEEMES
Regarding `COc1c(NC(=O)c2ccc(C)c(Oc3ccnc(CN4CCCN(C)CC4)c3)c2)cc(C(C)(C)C)cc1NS(C)(=O)=O` [8(20), N-(5-tert-butyl-3-methanesulphonylamino-2-methoxy-phenyl)-4-methyl-3-[2-(4-methyl-homopiperazin-1-ylmethyl)-pyridin-4-yloxy]-benzamide], the inhibition at 1 µM is 99.4%.

For `COc1c(NC(=O)c2ccc(Cl)c(Oc3ccnc(NC4CCN(C)CC4)n3)c2)cc(C(C)(C)C)cc1NS(C)(=O)=O` [4(15), N-(5-tert-butyl-3-methanesulphonylamino-2-methoxy-phenyl)-4-chloro-3-[2-(1-methyl-piperidin-4-ylamino)-pyrimidin-4-yloxy]-benzamide], the inhibition at 1 µM was 99.6%.

As for `COc1c(NC(=O)c2ccc(C)c(Oc3ccnc(NC4CCN(C)CC4)n3)c2)cc(C(C)(C)C)cc1NS(C)(=O)=O` [4(9), N-(5-tert-butyl-3-methanesulphonylamino-2-methoxy-phenyl)-4-methyl-3-[2-(1-methyl-piperidin-4-ylamino)-pyrimidin-4-yloxy]-benzamide], the inhibition at 1 µM turned out to be 98.6%.

On to `COc1c(NC(=O)c2ccc(Cl)c(Oc3cc(NC4CCNCC4)ncn3)c2)cc(C(C)(C)C)cc1NS(C)(=O)=O` [Example 11, N-(5-tert-butyl-3-methanesulphonylamino-2-methoxy-phenyl)-4-chloro-3-[6-(piperidin-4-ylamino)-pyrimidin-4-yloxy]-benzamide], for which the inhibition at 1 µM came out at 99.2%.

With `COc1c(NC(=O)c2ccc(C)c(Oc3ccnc(N(C)C4CCNC4)n3)c2)cc(C(C)(C)C)cc1NS(C)(=O)=O` (centres unmarked) [5(24), N-(5-tert-butyl-3-methanesulphonylamino-2-methoxy-phenyl)-4-methyl-3-[2-(methyl-pyrrolidin-3-yl-amino)-pyrimidin-4-yloxy]-benzamide], the inhibition at 1 µM turned out to be 97.9%.

On to `COc1c(NC(=O)c2ccc(C)c(Oc3ccnc(CC4CCCN(C)CC4)n3)c2)cc(C(C)(C)C)cc1NS(C)(=O)=O` (centres unmarked) [12(6), N-(5-tert-butyl-3-methanesulphonylamino-2-methoxy-phenyl)-4-methyl-3-[2-(1-methyl-azepan-4-ylmethyl)-pyrimidin-4-yloxy]-benzamide], for which the inhibition at 1 µM stood at 99.6%.

For `COc1c(NC(=O)c2ccc(C)c(Oc3ccnc(CC4CCCN(C)CC4)c3)c2)cc(C(C)(C)C)cc1NS(C)(=O)=O` (centres unmarked) [Example 12, N-(5-tert-butyl-3-methanesulphonylamino-2-methoxy-phenyl)-4-methyl-3-[2-(1-methyl-azepan-4-ylmethyl)-pyridin-4-yloxy]-benzamide], the inhibition at 1 µM amounted to 97.5%.

With `CNCc1cc(Oc2cc(C(=O)Nc3cc(C(C)(C)C)cc(NS(C)(=O)=O)c3OC)ccc2C)ccn1` [8(14), N-(5-tert-butyl-3-methanesulphonylamino-2-methoxy-phenyl)-4-methyl-3-(2-methylaminomethyl-pyridin-4-yloxy)-benzamide], the inhibition at 1 µM came to 91.1%.

`COc1c(NC(=O)c2ccc(C)c(Oc3cc(N4CC[C@@H](N(C)C)C4)ncn3)c2)cc(C(C)(C)C)cc1NS(C)(=O)=O` [4(12), N-(5-tert-butyl-3-methanesulphonylamino-2-methoxy-phenyl)-3-[6-((R)-3-dimethylamino-pyrrolidin-1-yl)-pyrimidin-4-yloxy]-4-methyl-benzamide]: the inhibition at 1 µM came to 95.8%.

Consider `COc1c(NC(=O)c2ccc(C)c(Oc3cc(N4CCNC(=O)C4)ncn3)c2)cc(C(C)(C)C)cc1NS(C)(=O)=O` [4(3), N-(5-tert-butyl-3-methanesulphonylamino-2-methoxy-phenyl)-4-methyl-3-[6-(3-oxo-piperazin-1-yl)-pyrimidin-4-yloxy]-benzamide], for which the inhibition at 1 µM was found to be 96.3%.

Take `COc1c(NC(=O)c2ccc(C)c(Oc3ccnc(CC4CCN(C)CC4)c3)c2)cc(C(C)(C)C)cc1NS(C)(=O)=O` [9(2), N-(5-tert-butyl-3-methanesulphonylamino-2-methoxy-phenyl)-4-methyl-3-[2-(1-methyl-piperidin-4-ylmethyl)-pyridin-4-yloxy]-benzamide]: the inhibition at 1 µM was found to be 98.5%.
